Measured values: paper PMC7156724, “Potent BRD4 inhibitor suppresses cancer cell-macrophage interaction” (Nature Communications, 2020)
Several values for one entry are separate records, joined by “and”; a condition that tells them apart may be missing. Equal values may be shown once.

Experiments:
TAMs = experiment: Transwell 2D co-culture of pretreated A2780 cells and TAMs, colonies; format: cell-based, mouse
Procedure: CD45^+CD11b^+F4/80^+ TAMs were isolated from peritoneal metastasis of A2780 tumor-bearing mice and cultured in RPMI-1640 supplemented with 10% FBS, 1% penicillin/streptomycin, and 0–50 ng/ml CSF1 (R&D Systems) as indicated according to standard protocols. In the cancer cell-macrophage co-culture experiments, CSF1 was not added. In the transwell (Corning, pore size, 0.4 μm) co-culture experiments, tumor cells were placed into the upper chamber, and TAMs were seeded into the lower chamber. […]
with anti-CD45, CD11b and CD206 followed by FACS analysis. Shown are representative FACS plots (c) and quantification of the percentage of CD11b+CD206+ cells (d). Data are presented as mean ± SEM from 5 different mice. p values were calculated using two-tailed, unpaired t tests. **, p<0.01; ***, p<0.001. […] Quantification of spheroid volumes (f). Data are presented as mean ± SEM from 15 independent experiments. p values were calculated using two-tailed, unpaired t tests. **, p<0.01. […]
CD45+F4/80 +CD11b+CD206+ TAMs were isolated from tumors of ovarian cancer-bearing donor m i c e. Sh o wn are schematics of the experiment (g), representative images (h) and quantification of colonies (i). Data are presented as mean ± SEM from 3 independent experiments. p values were calculated using two-tailed, unpaired t tests. **, p<0.01; ***, p<0.001. […]

HIF1A mRNA = experiment: RT-qPCR of HIF1A in A375 or A2780 cells; format: cell-based, human
Procedure: Fig. 7 NHWD-870 inhibited CSF1 expression through suppressing BRD4 and HIF1α in tumor cells. a, b Representative western blot analysis of control (Ctrl) and BRD4 knockout (KO) A375 and A2780 cells exposed to 20% or 1% O2 for 24 hours. Selected from three independent experiments. c, d Representative western blot analysis of A375 and A2780 cells treated with DMSO or 25 nM NHWD-870 and exposed to 20% or 1% O2 for 24 h. Selected from three independent experiments. e Relative HIF1 luciferase reporter activity in control (Ctrl), BRD4 knockout (KO), or NHWD-870 treated A375 and A2780 cells exposed to 20% or 1% O2 for 24 h. Data are presented as mean ± SEM from three independent experiments. f RT-qPCR analyses of CSF1 in control (Ctrl), BRD4 knockout (KO), or NHWD-870 treated A375 and A2780 cells exposed to 20% or 1% O2 for 24 hours. Data are presented as mean ± SEM from three independent experiments. g RT-qPCR analyses of HIF1A in A375 or A2780 cells treated with 15 nM NHWD-870 or DMSO control for 24 h. Data are presented as mean ± SEM from three independent experiments. h Genome browser view of BRD4 ChIP-seq peaks on the HIF1A promoter. […] NHWD-870 inhibits the proliferation and survival of TAMs partly by inhibiting BRD4 activity, HIF1α expression, and CSF1 secretion by tumor cells, and downregulating CSF1R mediated ERK and PI3K/AKT signaling in TAMs. p values were calculated using two-tailed, unpaired t tests in this figure. *p < 0.05; **p < 0.01; ***p < 0.001. […]
Total RNA was extracted with RNeasy plus mini kit (Qiagen), and then cDNA was synthesized by iScript™ cDNA Synthesis Kit (Bio-Rad). qPCR was performed using a CFX96 Real-time PCR Instrument (BioRad). Data were collected using CFX Manager version 3.1.1517.823 and analyzed using Microsoft Excel 2010. Relative expression levels were determined by normalization to human GAPDH using the ∆∆Ct method. […]

With `Cc1nnn(C)c1-c1cnc2c3c4cnn(C)c4ccc3n([C@H](c3ccccc3)C3CCOCC3)c2c1` [NHWD-870] the “fold decrease of the growth of TAMs” value (TAMs; 50 nM, 2D system) was “about 6 fold”, the “growth of TAMs in 2D co-culture system” value (TAMs; A2780 pre-treated with 25 or 50 nM for 48h) was “potently decreased the growth of TAMs in a dose-dependent manner” and the “HIF1A mRNA levels” value (HIF1A mRNA; 15 nM, 24 h, A375 or A2780 cells) was “decreased HIF1A mRNA levels”. For the same compound, the “HIF1A mRNA, relative to DMSO (Fig.7g)” value (HIF1A mRNA; A375) was 0.3638 and 0.3259 and 0.3497 and the “HIF1A mRNA, relative to DMSO (Fig.7g)” value (HIF1A mRNA; A2780) was 0.269 and 0.2453 and 0.2176.
